Laboratory results: article PMC5433438 (Bioorganic & Medicinal Chemistry, 2015)

Target: HKU4-CoV 3CL^pro (Bat coronavirus HKU4, UniProt P0C6W3)
Type: biochemical, Tylonycteris bat coronavirus HKU4

Chain of HKU4-CoV 3CL^pro (P0C6W3 3292-3597 limits assumed): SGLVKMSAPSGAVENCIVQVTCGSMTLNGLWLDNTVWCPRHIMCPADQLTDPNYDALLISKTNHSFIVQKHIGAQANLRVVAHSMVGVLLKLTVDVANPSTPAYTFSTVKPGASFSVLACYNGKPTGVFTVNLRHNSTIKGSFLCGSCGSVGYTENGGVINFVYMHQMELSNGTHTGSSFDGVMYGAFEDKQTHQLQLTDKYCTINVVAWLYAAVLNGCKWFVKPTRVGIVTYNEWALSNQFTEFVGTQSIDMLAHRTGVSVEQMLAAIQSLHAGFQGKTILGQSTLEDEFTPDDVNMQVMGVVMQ

O=C(Nc1ccc(N(Cc2ccsc2)C(=O)Cn2nnc3ccccc32)cc1)c1cccs1 [1A]
IC50 (μM): sub-micromolar

O=C(Nc1ccc(N(Cc2ccsc2)C(=O)Cn2nnc3ccccc32)cc1)c1ccccc1 [2A]
IC50 (μM): sub-micromolar

CC(=O)Nc1ccc(N(C(=O)Cn2nnc3ccccc32)C(C(=O)NC(C)(C)C)c2ccsc2)cc1 (stereo not shown) [3B]
increase in IC50: 5 fold

O=C(Cn1nnc2ccccc21)N(Cc1ccsc1)c1ccc(-c2ccncc2)cc1 [5A]
fold more active: 2 fold

O=C(Cn1nnc2ccccc21)N(Cc1ccsc1)c1ccc(NCc2ccccc2)cc1 [17A]
increase in IC50: 10 fold

CC(C)C(=O)Nc1ccc(N(Cc2ccsc2)C(=O)Cn2ccnn2)cc1 [19A]
decrease in inhibitory potency between the analogs: ten-fold

O=C(Cn1nnc2ccccc21)NCc1ccsc1 [22A, 2-(1H-Benzo[d][1,2,3]triazol-1-yl)-N-(thiophen-3-ylmethyl)acetamide]
increase in IC50: greater than 200 fold
